Among the data in ChEMBL document CHEMBL5252574, “α-Synuclein Aggregation Inhibitory Procerolides and Diphenylalkanes from the Ascidian Polycarpa procera” (J Nat Prod, 2023) are inhibition and Activity values, retold here.

The source made the active and inactive calls. The rule behind the calls is not given here.

Assay [1] addresses Alpha-synuclein (Homo sapiens) (UniProt P37840). The assay can be described thus: Inhibition of human alpha-syn expressed in Escherichia coli BL21 (DE3) cells aggregation incubated for 36 hrs by ThT dye based fluorescence assay.
A further assay has as its system Pseudomonas aeruginosa. The assay can be described thus: Antibacterial activity against Pseudomonas aeruginosa ATCC 27853 incubated for 18 hrs by microdilution method. It counts as functional, organism-based. (In general: In broth dilution the organism is exposed to a series of concentrations in liquid medium.)
Assay [2] has as its system Staphylococcus aureus. The experiment in a line: Antibacterial activity against methicillin-susceptible Staphylococcus aureus ATCC 25923 incubated for 18 hrs by microdilution method. The format is functional, organism-based.
The subject of assay [3] is Staphylococcus aureus. The assay can be described thus: Antibacterial activity against methicillin- resistant Staphylococcus aureus ATCC 43300 incubated for 18 hrs by microdilution method. The format is functional, organism-based.

For `CCOC(=O)C1(Cc2ccc(Cl)cc2)OC(=O)C(O)=C1c1ccc(Cl)cc1` (configuration not stated), the inhibition entry in assay [1] is “inactive”.

Turning to `CCOC(=O)C1(Cc2ccc(OC)cc2)OC(=O)C(O)=C1c1ccccc1` (configuration not stated), the inhibition result in assay [1] was “inactive”.

Consider `COC1=C(c2cc(Br)c(O)c(Br)c2)[C@H](Cc2cc(Br)c(OC)c(Br)c2)OC1=O`, for which the result with Pseudomonas aeruginosa, in the assay on Staphylococcus aureus [2] and with Staphylococcus aureus [3] was inactive.

Take `COC1=C(c2cc(Br)c(O)c(Br)c2)[C@H](Cc2ccc(OC)c(Br)c2)OC1=O`: the outcome with Pseudomonas aeruginosa, in the assay with Staphylococcus aureus [2] and in the assay on Staphylococcus aureus [3] was inactive.

With `CCOC(=O)C1(Cc2cccc(OC)c2)OC(=O)C(O)=C1c1cccc(OC)c1` (configuration not stated), in assay [1], the inhibition entry was “inactive”.

For the molecule `CCOC(=O)C1(Cc2ccccc2)OC(=O)C(O)=C1c1ccccc1` (configuration not stated), the inhibition result in assay [1] was “inactive”.

Regarding `CCOC(=O)C1(Cc2ccccc2)OC(=O)C(O)=C1c1ccc(OC)cc1` (configuration not stated), the inhibition result in assay [1] was “inactive”.

Take `CCOC(=O)C1(Cc2ccc(OC)cc2)OC(=O)C(O)=C1c1ccc(OC)cc1` (configuration not stated): the inhibition result in assay [1] is “inactive”.

As for `CCOC(=O)C1(Cc2ccc(C)cc2)OC(=O)C(O)=C1c1ccc(C)cc1` (configuration not stated), in assay [1], the inhibition entry is “inactive”.

As to `CCCC(C)CC1(C(=O)OCC)OC(=O)C(O)=C1c1ccc(OC)cc1` (configuration not stated), in assay [1], the inhibition entry was “inactive”.

Consider `COc1ccc(C[C@H](O)C(=O)c2cc(Br)c(O)c(Br)c2)cc1Br`, for which the result in the assay on Pseudomonas aeruginosa, in the assay with Staphylococcus aureus [2] and in the assay on Staphylococcus aureus [3] was inactive.
